Values after ≈ are worked out from the molar mass of the structure shown. Where two headings read alike, the source gives them in different places.

These results are taken from patent US9895387B2, “Compositions for treating Helicobacter pylori infection” (OVER S.R.L., priority 2010, dated 2018).

Common to all, as to assay type: cell-based, Helicobacter pylori
Assay [1] relates to H. pylori strain CCUG 17874 (CagA+). Put plainly: Minimal bactericidal concentration (MBC), broth dilution with subculture on agar.
Assay [2] concerns H. pylori strain G50 (CagA−). Described as above. The note with it: substance alone.
Assay [3] deals with H. pylori strain G21 (CagA−). The assay is described as above. To be noted: substance alone.
Assay [4] concerns H. pylori strain 4 Kb (CagA+). Described as above. To be noted: substance alone.
The test system of assay [5] is H. pylori strain Di Simpli (CagA+). The description is as above. To be noted: substance alone.
Assay [6] relates to H. pylori strain 10K (CagA+). The assay is described as above. The note with it: substance alone.
The subject of assay [7] is H. pylori strain 328 (CagA+). The assay is described as above. To be noted: substance alone.
Assay [8] has as its system H. pylori strain 328 Km (isogenic mutant CagA−). To be noted: substance alone.
Assay [9] has as its system H. pylori strain M/C-R1 (CagA+, resistant to met and clar). Description: Minimal bactericidal concentration (MBC), broth dilution with subculture on agar. To be noted: substance alone.
Assay [10] has as its system H. pylori strain M/C-R2 (CagA+, resistant to met and clar). The assay is described as above. To be noted: substance alone.
Where [11] appears, read: Helicobacter pylori, CCUG17874, substance alone, read-out: MBC.
[12] abbreviates: Helicobacter pylori, read-out: MBC.

In the case of “polyoxyethylene (20) sorbitan monooleate [polysorbate 80]”, the MBC was 5.0 µg/mL in assay [1] (substance alone); 4.0 µg/mL in [2]; 4 µg/mL in assay [2] (listed as polysorbate); 1.6 µg/mL in assay [3]; 31 µg/mL in assay [4]; 25 µg/mL in assay [5]. The MBC is 6.2 µg/mL in assay [6]; 31 to 62 µg/mL in [7]; 62 µg/mL in assay [7] (listed as polysorbate); 62 µg/mL in assay [8]; 160 µg/mL in assay [9]; 62 µg/mL in assay [10].
In the case of `CC[C@H]1OC(=O)[C@H](C)[C@@H](O[C@H]2C[C@@](C)(OC)[C@@H](O)[C@H](C)O2)[C@H](C)[C@@H](O[C@@H]2O[C@H](C)C[C@H](N(C)C)[C@H]2O)[C@](C)(OC)C[C@@H](C)C(=O)[C@H](C)[C@@H](O)[C@]1(C)O` [clarithromycin], the MBC in assay [1] (setting [11]) was 0.25 µg/mL (≈ 0.334 µM); in assay [2] (setting [12]), 0.2 µg/mL (≈ 0.267 µM); in assay [3] (setting [12]), 0.2 µg/mL (≈ 0.267 µM); in [4] (setting [12]) it was 0.1 µg/mL (≈ 0.134 µM); in assay [5] (setting [12]), 0.4 µg/mL (≈ 0.535 µM); in [7] (setting [12]), 0.2 µg/mL (≈ 0.267 µM). The MBC in [9] (setting [12]) amounted to 320 µg/mL (≈ 428 µM); in [10] (setting [12]), 2500 µg/mL (≈ 3340 µM).
For the compound `Cc1ncc([N+](=O)[O-])n1CCO` [metronidazole], the MBC came to 3.1 µg/mL (≈ 18.1 µM) in [1] (setting [11]); 10 µg/mL (≈ 58.4 µM) in [5] (setting [12]); 16 µg/mL (≈ 93.5 µM) in assay [7] (setting [12]); 40 µg/mL (≈ 234 µM) in assay [9] (setting [12]); 320 µg/mL (≈ 1870 µM) in [10] (setting [12]).
Regarding `CC1(C)S[C@@H]2[C@H](NC(=O)[C@H](N)c3ccc(O)cc3)C(=O)N2[C@H]1C(=O)O` [amoxicillin], the MBC was 0.04 µg/mL (≈ 0.109 µM) in assay [2] (setting [12]) and 0.08 µg/mL (≈ 0.219 µM) in [6] (setting [12]).
Turning to `C[C@H]1COc2c(N3CCN(C)CC3)c(F)cc3c(=O)c(C(=O)O)cn1c23` [levofloxacin], the MBC in [2] (setting [12]) is 0.16 µg/mL (≈ 0.443 µM); in assay [6] (setting [12]), 0.31 µg/mL (≈ 0.858 µM).
